No end group written: not given here.

We go through 6 molecules from US11857596B2, “Animal feed additive and animal feed” (priority 2018, dated 2024).

The nature of data set [1]: Metabolome analysis of intestinal tract contents and blood. Type of data set: in vivo, chickens. The text has this:
It is thus considered that coated-Phe and coated-Tyr are assimilated by intestinal bacteria in feces and rapidly metabolized in blood.

Data set [2] is described as follows: Chicken growth test (body weight gain and feed conversion ratio). The settings on record: for BWG / FCR: Table 4, 0-3 weeks, addition 200 ppm (core material) in feed; for body weight gain effect and feed conversion ratio improvement effect: result in words, healthy broilers, 0 to 21 days of age. Type of data set: in vivo, broiler chickens.
For data set [3], the system named is Caco-2 cells (human intestinal epithelial cells). As to the kind of experiment: Membrane strengthening experiment (TER recovery of barrier function after TNF-α). Type of data set: cell-based. Conditions: for function of strengthening the barrier function (membrane-strengthening ability): result in words, FIG. 1A-1H.
Data set [4] has as its system Salmonella enterica (SE). As to the kind of experiment: Salmonella infection test in chickens (body weight gain and feed conversion ratio). Type of data set: in vivo, chickens (broilers). The settings on record: for BWG / FCR: 0-3 week, SE orally at 2 days of age; for body weight gain effect and feed conversion ratio improvement effect: result in words, Salmonella enterica infected broilers, test feed 21 days. How it is done:
The coated-Tyr and Tyr prepared in the same manner as in Example 2-1 were added to the feed matrix having the composition presented in Table 2 so that the amount of the core material was 200 ppm, to thereby prepare a feed. Broilers at 1 day of age were introduced into a breeding facility for infection test (6 broilers/repeat and 2 repeats/test group), then Salmonella enterica (SE) was orally administered to the broilers at 2 days of age, and the test feed was fed for 21 days to evaluate the body weight gain effect and feed conversion ratio of chickens. Note that a conventional antimicrobial growth promoter, enramycin, was used as a positive control. As enramycin, a commercially available product (“Enramycin F-80” manufactured by Scientific Feed Laboratory Co., Ltd., uncoated) was used as it was.
The results are presented with a negative control of 100. […]
Broilers at 0 days of age were introduced into a breeding facility for infection test (6 broilers/repeat and 2 repeats/test group), then Salmonella enterica (SE) was orally administered to the broilers at 2 days of age, and the test feed was fed for 21 days to evaluate the body weight gain effect and feed conversion ratio. Note that a conventional antimicrobial growth promoter, enramycin, was used as a positive control. As enramycin, a commercially available product (“Enramycin F-80” manufactured by Scientific Feed Laboratory Co., Ltd., uncoated) was used as it was.

Another data set relates to intestinal microbiota. The settings on record: cited from earlier work.
The conditions of data set [5]: 500 to 1,000 ppm of quercetin added to the feed; cited from earlier work.
The subject of data set [6] is Bifidobacterium thermophilum AJ110569. Briefly: Antibacterial spectrum of bacteriocin, spot-on lawn method. The settings on record: Nisin A and Duramycin 1 mg/ml, others 10-fold concentrated culture supernatant of producers. On the set-up: key: “+” to “+++++”: indicates the strength of antibacterial effect. The more “+”, the stronger the effect.; “+” to “+++++”: indicates the strength of antibacterial effect. The more “+”, the stronger the effect.; “+” to “+++++”: indicates the strength of antibacterial effect. The more “+”, the stronger the effect.; “+” to “+++++”: indicates the strength of antibacterial effect. The more “+”, the stronger the effect.; “+” to “+++++”: indicates the strength of antibacterial effect. The more “+”, the stronger the effect.; “ND”: indicates no effect detected (not detected). Format: cell-based.

For data set [7], the system named is Bacteroides fragilis JCM11019. The description is as above. On the set-up: key: “+” to “+++++”: indicates the strength of antibacterial effect. The more “+”, the stronger the effect.; “+” to “+++++”: indicates the strength of antibacterial effect. The more “+”, the stronger the effect.; “+” to “+++++”: indicates the strength of antibacterial effect. The more “+”, the stronger the effect.; “+” to “+++++”: indicates the strength of antibacterial effect. The more “+”, the stronger the effect.; “+” to “+++++”: indicates the strength of antibacterial effect. The more “+”, the stronger the effect.; “ND”: indicates no effect detected (not detected). Conditions: Nisin A and Duramycin 1 mg/ml, others 10-fold concentrated culture supernatant of producers. Format: cell-based.

For data set [8], the system named is Enterococcus faecalis AJ110149. The description is as above. Type of data set: cell-based. On the set-up: key: “+” to “+++++”: indicates the strength of antibacterial effect. The more “+”, the stronger the effect.; “+” to “+++++”: indicates the strength of antibacterial effect. The more “+”, the stronger the effect.; “+” to “+++++”: indicates the strength of antibacterial effect. The more “+”, the stronger the effect.; “+” to “+++++”: indicates the strength of antibacterial effect. The more “+”, the stronger the effect.; “+” to “+++++”: indicates the strength of antibacterial effect. The more “+”, the stronger the effect.; “ND”: indicates no effect detected (not detected). Conditions: Nisin A and Duramycin 1 mg/ml, others 10-fold concentrated culture supernatant of producers.

The subject of the next data set is Clostridium perfringens. Type of data set: cell-based. On the set-up: key: “+” to “+++++”: indicates the strength of antibacterial effect. The more “+”, the stronger the effect.; “+” to “+++++”: indicates the strength of antibacterial effect. The more “+”, the stronger the effect.; “+” to “+++++”: indicates the strength of antibacterial effect. The more “+”, the stronger the effect.; “+” to “+++++”: indicates the strength of antibacterial effect. The more “+”, the stronger the effect.; “+” to “+++++”: indicates the strength of antibacterial effect. The more “+”, the stronger the effect.; “ND”: indicates no effect detected (not detected). The settings on record: Nisin A and Duramycin 1 mg/ml, others 10-fold concentrated culture supernatant of producers.

The test system of data set [9] is Lactobacillus acidophilus. As to the kind of experiment: Antibacterial spectrum of bacteriocin, spot-on lawn method. Format: cell-based. More on the design: key: “+” to “+++++”: indicates the strength of antibacterial effect. The more “+”, the stronger the effect.; “+” to “+++++”: indicates the strength of antibacterial effect. The more “+”, the stronger the effect.; “+” to “+++++”: indicates the strength of antibacterial effect. The more “+”, the stronger the effect.; “+” to “+++++”: indicates the strength of antibacterial effect. The more “+”, the stronger the effect.; “+” to “+++++”: indicates the strength of antibacterial effect. The more “+”, the stronger the effect.; “ND”: indicates no effect detected (not detected). The settings on record: Nisin A and Duramycin 1 mg/ml, others 10-fold concentrated culture supernatant of producers.

Another data set has as its system Escherichia coli MG1655. Described as above. Format: cell-based. On the set-up: key: “+” to “+++++”: indicates the strength of antibacterial effect. The more “+”, the stronger the effect.; “+” to “+++++”: indicates the strength of antibacterial effect. The more “+”, the stronger the effect.; “+” to “+++++”: indicates the strength of antibacterial effect. The more “+”, the stronger the effect.; “+” to “+++++”: indicates the strength of antibacterial effect. The more “+”, the stronger the effect.; “+” to “+++++”: indicates the strength of antibacterial effect. The more “+”, the stronger the effect.; “ND”: indicates no effect detected (not detected). The settings on record: Nisin A and Duramycin 1 mg/ml, others 10-fold concentrated culture supernatant of producers.

The subject of data set [10] is Lactobacillus salivarius AJ110152. The description is as above. Format: cell-based. More on the design: key: “+” to “+++++”: indicates the strength of antibacterial effect. The more “+”, the stronger the effect.; “+” to “+++++”: indicates the strength of antibacterial effect. The more “+”, the stronger the effect.; “+” to “+++++”: indicates the strength of antibacterial effect. The more “+”, the stronger the effect.; “+” to “+++++”: indicates the strength of antibacterial effect. The more “+”, the stronger the effect.; “+” to “+++++”: indicates the strength of antibacterial effect. The more “+”, the stronger the effect.; “ND”: indicates no effect detected (not detected). The settings on record: Nisin A and Duramycin 1 mg/ml, others 10-fold concentrated culture supernatant of producers.

Data set [11] deals with Salmonella enterica AJ2785. Briefly: microbe, parasite or virus in culture. Format: cell-based.
Data set [12] relates to Salmonella enterica (SE). Briefly: Salmonella infection test in chickens (body weight gain and feed conversion ratio). Type of data set: in vivo, chickens (broilers). Conditions: Table 5; 0-3 week; addition 10 ppm; SE orally at 2 days of age; negative control = 100.
The subject of data set [13] is Lactobacillus acidophilus AJ13778. Briefly: Minimum inhibitory concentration, spot-on-lawn method. Type of data set: cell-based. Conditions: indicator strain Lactobacillus acidophilus AJ13778; MRS, 37° C.
Data set [14] concerns Clostridium perfringens AJ3350. As to the kind of experiment: microbe, parasite or virus in culture. Format: cell-based.
Data set [15] concerns Lactobacillus salivarius AJ110152. Briefly: Minimum inhibitory concentration, spot-on-lawn method. Conditions: indicator strain Lactobacillus salivarius AJ110152; MRS, 37° C. Format: cell-based.
For a further data set, the system named is Escherichia coli MG1665. Described as above. Format: cell-based.
Data set [16] concerns Bacteroides fragilis JCM11019. The data set is described as above. Conditions: indicator strain Bacteroides fragilis JCM11019; GAM, 37° C. Type of data set: cell-based.
Data set [17] deals with Bifidobacterium thermophilum AJ110569. The data set is described as above. Format: cell-based. Conditions: indicator strain Bifidobacterium thermophilum AJ110569; GAM, 37° C.
The subject of data set [18] is Enterococcus faecalis AJ110149. The data set is described as above. The settings on record: indicator strain Enterococcus faecalis AJ110149; MRS, 30° C.; ND = no effect detected. Format: cell-based.
[19] abbreviates: Table 5, addition 200 ppm, negative control = 100.
The mark [20] stands for this setting: material conc. 100 uM, comparison value with Ctr (TNFα alone), 24 h.
The mark [21] stands for this setting: Table 8, 10 ppm, control group = 100%.

For the molecule `N[C@@H](Cc1ccc(O)cc1)C(=O)O` [Tyrosin, tyrosine], the “detection in the intestinal tract contents or blood” value in data set [1] (metabolome analysis, chicken growth test of 2-3) is listed as “not detected”. Moreover, in data set [2], the BWG was determined as 104%; the FCR was determined as 98%; the “body weight gain effect and feed conversion ratio improvement effect” value is “A certain degree of body weight gain effect was confirmed”. In data set [3] (24 h, 20 µM), the Recovery ratio/ctr stood at 1.19. Also, the activity at 20 µM in [3] (Homo sapiens, Caco-2, material conc. 20 uM, TER barrier function recovery, 24 h, read-out: Recovery ratio (%)) came out at 138%. Moreover, the “function of strengthening the barrier function (membrane-strengthening ability)” value (“function” below) in data set [3] is given as “observed to have the function of strengthening the barrier function”. Further, in the data set on Salmonella enterica (SE) [4] (setting [19]), the BWG came to 96% and the FCR came out at 100%. The “body weight gain effect and feed conversion ratio improvement effect” value with Salmonella enterica (SE) [4] was “no effect”.
As for `O=c1c(O)c(-c2ccc(O)c(O)c2)oc2cc(O)cc(O)c12` [Quercetin, quercetin], the activity at 100 µM in data set [3] (Homo sapiens, Caco-2, material conc. 100 uM, TER barrier function recovery, 24 h, read-out: Recovery ratio (%)) was found to be 138%. For the same molecule, in data set [3] (setting [20]), the Recovery ratio/ctr was determined as 1.23. In data set [3], the “function” value is on record as “observed to have the function of strengthening the barrier function”. Further, the “effect on the intestinal microbiota” value in the data set on intestinal microbiota is “negative effect”. In addition, in [5], the “body weight gain effect (body weight gain efficiency) and feed consumption” value is recorded as “did not increase”; the feed conversion ratio result is “remained almost unchanged or slightly decreased”.
Turning to `N[C@@H](Cc1ccccc1)C(=O)O` [Phe, phenylalanine], the “detection in the intestinal tract contents or blood” value in [1] (in vivo) is recorded as “not detected”. In data set [2], the BWG stood at 106%; the FCR is 98%; the “body weight gain effect and feed conversion ratio improvement effect” value is “A certain degree of body weight gain effect was confirmed”.
As to “nisin A (ITSISLCTPGCKTGALMGCNMKTATCHCSIHVSK; not fully specified (some residues, bridges); also: lantibiotic (ring and dehydro residues not placed); UniProt P13068 24-57, looked up) [reagent manufactured by Sigma-Aldrich, nisin content 2.5% by mass, balance sodium chloride and denatured milk solids]”, the “Antibacterial spectrum (strength of antibacterial effect)” value (from here on “Antibacterial spectrum”) was “+++++” in [6]; “++++” in data set [7]; “+++++” in data set [8]; “+++++” in the data set with Clostridium perfringens; “++++” in [9]; “++” in the data set with Escherichia coli MG1655. For the same molecule, the “Antibacterial spectrum” value in data set [10] is given as “+++++”. Besides, in data set [3], the “function” value was “observed to have the function of strengthening the barrier function”. Further, in the data set with Salmonella enterica (SE) [4] (setting [21]), the BWG is recorded as 101%. Besides, the FCR with Salmonella enterica (SE) [4] (setting [21]) is on record as 100%. In addition, the “body weight gain effect and feed conversion ratio improvement effect” value in the data set with Salmonella enterica (SE) [4] is given as “no effect”.
Turning to duramycin, the “Antibacterial spectrum” value was “++” in [6], “+” in data set [7], “+++++” with Clostridium perfringens and “+” in data set [9]. Also, the “Recovery ratio (%)” value in [3] (material conc. 1 uM, TER barrier function recovery, 24 h) is 120%. In data set [3] (material conc. 1 uM, comparison value with Ctr (TNFα alone), 24 h), the Recovery ratio/ctr came out at 1.04.
For enramycin, the Minimum inhibitory concentration in data set [11] was over 100000 µg/mL; in data set [13], 500 µg/mL; in [14] it was 1000 µg/mL; in [15], 500 µg/mL; in the data set with Escherichia coli MG1665, over 100000 µg/mL; in [16], 64000 µg/mL. Further, the Minimum inhibitory concentration was found to be 500 µg/mL in data set [17] and 4000 µg/mL in data set [18]. Moreover, the BWG in the data set with Salmonella enterica (SE) [12] and in the data set with Salmonella enterica (SE) [4] (setting [21]) was 107% in each case. Moreover, the FCR in the data set with Salmonella enterica (SE) [12] and in the data set on Salmonella enterica (SE) [4] (setting [21]) was 98% each time. In data set [3] (material conc. 100 uM, TER barrier function recovery, 24 h), the “Recovery ratio (%)” value worked out at 144%. Besides, the Recovery ratio/ctr in data set [3] (setting [20]) worked out at 1.28.
